Source: patent US20050171358A1 (priority 2002, published 2005)

Tests used:
[1] = test system: Colletotrichum lagenarium; settings: 200 ppm spray on cucumber (3 leaf stage), inoculated next day; lesion numbers on first and second leaves after 7 days in green house, graded by Table 5
Pyricularia oryzae = assay type: in vivo; settings: 200 ppm spray on rice (Koshihikari, 3 leaf stage), inoculated next day; lesion numbers on third leaves after 7 days in green house, graded by Table 5

Row | Structure (SMILES) | Evaluation (effect for cucumber anthracnose) [1] | Evaluation (effect for rice blast) (Pyricularia oryzae)
1 | CC(C)c1cc(CNC(=O)NC2CCCCC2)on1 [II-15, 1-[(3-isopropyl-5-isoxazolyl)methyl]-3-cyclohexylurea] | 4 (1˜5) | 3 (6˜10)
2 | COc1ccc(C(=O)NCc2cc(CCc3ccccc3)no2)cc1 [IV-34, N-{[3-(2-phenylethyl)-5-isoxazolyl]methyl}-4-methoxybenzamide] | 5 (0) | 5 (0)
3 | O=C(NCc1cc(-c2ccco2)no1)Oc1ccccc1 [I-33, phenyl{[3-(2-furyl)-5-isoxazolyl)methyl]carbamate] | 5 (0) | 5 (0)
4 | O=C(NCc1cc(COc2ccccc2)no1)NC1CCCC1 [II-106, 3-(3-phenoxymethyl-5-isoxazolyl)methyl-1-cyclopentylurea] | 2 (11˜20) | 3 (6˜10)
5 | Cc1ccc(C(=O)NCc2cc(-c3cccnc3)no2)cc1 [III-218, N-{[3-(3-pyridyl)-5-isoxazolyl]methyl}-4-methylbenzamide] | 4 (1˜5) | 3 (6˜10)
6 | COc1ccc(C(=O)NCc2cc(C(=O)Nc3ccc(Cl)cc3)no2)cc1 [IV-106, N-{[3-(4-chlorophenyl)aminocarbonyl-5-isoxazolyl]methyl}-4-methoxybenzamide] | – | 2 (11˜20)
7 | O=C(NCc1cc(CCc2ccccc2)no1)c1ccccc1 [IV-33, N-{[3-(2-phenylethyl)-5-isoxazolyl]methyl}benzamide] | 5 (0) | 5 (0)
8 | O=C(NCc1cc(-c2ccc(Cl)cc2)no1)c1ccccc1 [III-34, N-{[3-(4-chlorophenyl)-5-isoxazolyl]methyl}benzamide] | 5 (0) | 5 (0)
9 | O=C(NCc1cc(-c2ccccc2)no1)Nc1ccccc1Cl [II-48, 1-[(3-phenyl-5-isoxazolyl)methyl]-3-(2-chlorophenyl)urea] | 4 (1˜5) | 3 (6˜10)
10 | O=C(NCc1cc(-c2ccccc2)no1)NC1CCCCC1 [II-7, 3-[(3-phenyl-5-isoxazolyl)methyl]-1-cyclohexyl urea] | 5 (0) | 5 (0)
11 | COc1ccc(C(=O)NCc2cc(C(C)(C)C)no2)cc1 [III-237, N-[(3-tert-butyl-5-isoxazolyl)methyl]-4-methoxybenzamide] | 3 (6˜10) | 3 (6˜10)
12 | CO/N=C/c1ccc(-c2cc(CNC(=O)c3ccc(C)cc3)on2)cc1 [III-214] | 5 (0) | 4 (1˜5)
13 | O=C(NCc1cc(C(=O)Nc2ccccc2)no1)c1ccccc1 [IV-113, N-[(3-phenylaminocarbonyl-5-isoxazolyl)methyl]benzamide] | 4 (1˜5) | 4 (1˜5)
14 | O=C(NCc1cc(-c2ccc(C(F)(F)F)cc2)no1)c1ccccc1 [III-40, N-{[3-(4-trifluoromethylphenyl)-5-isoxazolyl]methyl}benzamide] | 5 (0) | 5 (0)
15 | CC(C)c1cc(CNC(=O)c2ccccc2)on1 [III-4, N-[(3-isopropyl-5-isoxazolyl)methyl]benzamide] | 4 (1˜5) | 3 (6˜10)
16 | Cc1ccc(C(=O)NCc2cc(COc3cccc(C)c3)no2)cc1 [IV-49, N-{[3-(3-methylphenyl)oxymethyl-5-isoxazolyl]methyl}-4-methylbenzamide] | 2 (11˜20) | 2 (11˜20)
17 | O=C(NCc1cc(-c2ccccc2)no1)Nc1ccc(Cl)cc1 [II-50, 1-[(3-phenyl-5-isoxazolyl)methyl]-3-(4-chlorophenyl)urea] | – | 5 (0)
18 | Cc1cccc(C(=O)NCc2cc(C(=O)Nc3ccccc3)no2)c1 [IV-116, N-[(3-phenylaminocarbonyl-5-isoxazolyl)methyl]-3-methylbenzamide] | 4 (1˜5) | 5 (0)
19 | CCCCCC#Cc1cc(CNC(=O)c2ccc(OC)cc2)on1 [III-248, N-{[3-(1-heptynyl)-5-isoxazolyl]methyl}-4-methoxybenzamide] | 2 (11˜20) | 3 (6˜10)
20 | Cc1ccc(-c2cc(CNC(=O)c3ccccc3)on2)cc1 [III-10, N-{[3-(4-tolyl)-5-isoxazolyl]methyl}benzamide] | 5 (0) | 5 (0)
21 | COc1ccc(OCc2cc(CNC(=O)c3ccc(OC)cc3)on2)cc1 [IV-56, N-{[3-(4-methoxyphenyl)oxymethyl-5-isoxazolyl]methyl}-4-methoxybenzamide] | 2 (11˜20) | 3 (6˜10)
22 | O=C(NCc1cc(-c2ccccc2)no1)c1ccc([N+](=O)[O-])cc1 [III-137, N-[(3-phenyl-5-isoxazolyl)methyl]-4-nitrobenzamide] | 5 (0) | 4 (1˜5)
23 | CSCc1cc(CNC(=O)NC2CCCCC2)on1 [II-114, 3-(3-methylthiomethyl-5-isoxazolyl)methyl-1-cyclohexylurea] | 3 (6˜10) | 3 (6˜10)

Row | Structure (SMILES) | Evaluation (effect for cucumber anthracnose) [1] | Evaluation (effect for rice blast) (Pyricularia oryzae)
24 | Cc1ccc(-c2cc(CNC(=O)c3ccc(C)c(F)c3)on2)cc1 [III-162, N-[(3-(4-tolyl)-5-isoxazolyl)methyl]-3-fluoro-4-methylbenzamide] | 5 (0) | 5 (0)
25 | COc1ccc(C(=O)NCc2cc(C(=O)Nc3ccccc3)no2)cc1 [IV-84, N-[(3-phenylaminocarbonyl-5-isoxazolyl)methyl]-4-methoxybenzamide] | 5 (0) | 5 (0)
26 | COc1ccc(C(=O)NCc2cc(-c3ccsc3)no2)cc1 [III-220, N-{[3-(3-thienyl)-5-isoxazolyl]methyl}-4-methoxylbenzamide] | 3 (6˜10) | 3 (6˜10)
27 | Cc1ccc(-c2cc(CNC(=O)Oc3ccccc3)on2)cc1 [I-25, phenyl{[3-(4-tolyl)-5-isoxazolyl)methyl]carbamate] | – | 5 (0)
28 | O=C(NCc1cc(-c2ccccn2)no1)Oc1ccccc1 [I-31, phenyl{[3-(2-pyrizyl)-5-isoxazolyl]methyl}carbamate] | – | 4 (1˜5)
29 | CC(=O)Nc1ccc(-c2cc(CNC(=O)c3ccc(C)cc3)on2)cc1 [III-57, N-{[3-(4-acetamidophenyl)-5-isoxazolyl]methyl}-4-methylbenzamide] | – | 2 (11˜20)
30 | CC(C)c1cc(CNC(=O)Cc2ccccc2)on1 [I-63, N-[(3-isopropyl-5-isoxazolyl)methyl]phenylacetamide] | – | 2 (11˜20)
31 | O=C(NCc1cc(-c2ccccc2)no1)Nc1cccc(Cl)c1 [II-49, 1-[(3-phenyl-5-isoxazolyl)methyl]-3-(3-chlorophenyl)urea] | – | 4 (1˜5)
32 | O=C(NCc1cc(Cc2ccccc2)no1)OC1CCCCC1 | – | 4 (1˜5)
33 | COc1ccc(C(=O)NCc2cc(COc3ccccc3C#N)no2)cc1 [IV-51, N-{[3-(2-cyanophenyl)oxymethyl-5-isoxazolyl]methyl}-4-methoxybenzamide] | – | 2 (11˜20)
34 | COc1ccc(C(=O)NCc2cc(COc3cccnc3)no2)cc1 [IV-91, N-{[3-(3-pyridyl)oxymethyl-5-isoxazolyl]methyl}-4-methoxybenzamide] | – | 3 (6˜10)
35 | CS(=O)(=O)c1ccc(C(=O)NCc2cc(Cc3ccccc3)no2)cc1 [IV-8, N-[(3-benzyl-5-isoxazolyl)methyl]-4-methanesulfonylbenzamide] | – | 3 (6˜10)
36 | O=C(Cc1ccccc1)NCc1cc(-c2ccccc2)no1 [I-48, N-[(3-phenyl-5-isoxazolyl)methyl]-2-phenylethanamide] | – | 4 (1˜5)
37 | O=C(NCc1cc(-c2cccs2)no1)Oc1ccccc1 [I-32, phenyl{[3-(2-thienyl)-5-isoxazolyl)methyl]carbamate] | – | 5 (0)
38 | Cc1ccc(-c2cc(CNC(=O)Nc3ccccc3)on2)cc1 [II-2, 3-{[3-(4-tolyl)-5-isoxazolyl]methyl}-1-phenyl urea] | – | 5 (0)
39 | CC1C(Cl)(Cl)C1(C)C(=O)NCc1cc(-c2ccccc2)no1 (stereo not shown) [III-212] | – | 2 (11˜20)
40 | CCc1ccc(C(=O)NCc2cc(Cc3ccccc3)no2)cc1 [IV-6, N-[(3-benzyl-5-isoxazolyl)methyl]-4-ethylbenzamide] | – | 5 (0)
41 | O=C(NCc1cc(-c2ccccc2)no1)Nc1ccccn1 [II-99, 1-[(3-phenyl-5-isoxazolyl)methyl]-3-(2-pyridyl)urea] | – | 3 (6˜10)
42 | CC(NC(=O)C1(C)C(C)C1(Cl)Cl)c1cc(-c2ccccc2)no1 (stereo not shown) [III-213, N-[1-(3-phenyl-5-isoxazolyl)ethyl]-2,2-dichloro-1,3-dimethylcyclopropanecarboxamide] | – | 3 (6˜10)
43 | CC(C)c1cc(CNC(=O)Nc2ccccc2)on1 [II-3, 1-[(3-isopropyl-5-isoxazolyl)methyl]-3-phenylurea] | – | 3 (6˜10)
44 | O=C(NCc1cc(-c2ccccc2)no1)C(Cl)c1ccccc1 (stereo not shown) [I-49, N-[(3-phenyl-5-isoxazolyl)methyl]-2-chloro-2-phenylethanamide] | – | 3 (6˜10)
45 | COc1ccc(C(=O)NCc2cc(C(=O)c3ccccc3)no2)cc1 [IV-98, N-[(3-benzoyl-5-isoxazolyl)methyl]-4-methoxybenzamide] | – | 2 (11˜20)
46 | Cc1ccc(-c2cc(CNC(=O)N3CCCCC3)on2)cc1 [III-203] | – | 2 (11˜20)
